Test results as given in ChEMBL document CHEMBL1201862, “PubChem BioAssay data set” (2004).
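Exposure lasted 48 hours, with cells grown in 96-well plates and compounds tested at five concentrations. GI50 is the concentration that inhibits growth by half.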 Activity calls are given as the source filed them. No stated cut-off is given here; in the data, active = GI50 up to about 1.1 µM and inactive = higher.

What was measured:
Assay in all cases: DTP human tumour cell line panel, 48 h
A498 = test system: A498
A549 = test system: A549
ACHN = test system: ACHN
BT-549 = test system: BT-549
CAKI-1 = test system: CAKI-1
CCRF-CEM = test system: CCRF-CEM
COLO 205 = test system: COLO 205
DU-145 = test system: DU-145
HCT-15 = test system: HCT-15
HL-60 = test system: HL-60
HOP-62 = test system: HOP-62
HOP-92 = test system: HOP-92
HT-29 = test system: HT-29
Hs-578T = test system: Hs-578T
IGROV-1 = test system: IGROV-1
K562 = test system: K562
KM12 = test system: KM12
LOX IMVI = test system: LOX IMVI
M14 = test system: M14
MCF7 = test system: MCF7
MDA-MB-231 = test system: MDA-MB-231
MDA-MB-435 = test system: MDA-MB-435
MOLT-4 = test system: MOLT-4
Malme-3M = test system: Malme-3M
NCI-H23 = test system: NCI-H23
NCI-H460 = test system: NCI-H460
NCI-H522 = test system: NCI-H522
NCI/ADR-RES = test system: NCI/ADR-RES
OVCAR-3 = test system: OVCAR-3
OVCAR-4 = test system: OVCAR-4
OVCAR-5 = test system: OVCAR-5
OVCAR-8 = test system: OVCAR-8
PC-3 = test system: PC-3
RPMI-8226 = test system: RPMI-8226
SF-268 = test system: SF-268
SF-295 = test system: SF-295
SF-539 = test system: SF-539
SK-MEL-28 = test system: SK-MEL-28
SK-MEL-2 = test system: SK-MEL-2
SK-MEL-5 = test system: SK-MEL-5
SK-OV-3 = test system: SK-OV-3
SN12C = test system: SN12C
SNB-19 = test system: SNB-19
SNB-75 = test system: SNB-75
SR = test system: SR
SW-620 = test system: SW-620
T47D = test system: T47D
TK-10 = test system: TK-10
U-251 = test system: U-251
UACC-257 = test system: UACC-257
UACC-62 = test system: UACC-62
UO-31 = test system: UO-31
786-0 = test system: 786-0
EKVX = test system: EKVX
HCC 2998 = test system: HCC 2998
HCT-116 = test system: HCT-116
MDA-N = test system: MDA-N
RXF 393 = test system: RXF 393

What does the source list for `CCOC(=O)C1=C(C)N(c2ccc(Cl)cc2)C2(O)C=CC(Nc3ccc(Cl)cc3)=C3C(=O)N(c4ccccc4)C(=O)C312` (centres undefined)?
GI50 (A498): 1.83 µM (inactive); GI50 (A549): 3.52 µM (inactive); GI50 (ACHN): 6.75 µM (inactive); GI50 (BT-549): 1.54 µM (inactive); GI50 (CAKI-1): 1.87 µM (inactive); GI50 (CCRF-CEM): 1.64 µM (inactive); GI50 (COLO 205): 2.44 µM (inactive); GI50 (DU-145): 4.27 µM (inactive); GI50 (HCT-15): 3.45 µM; GI50 (HL-60): 2.97 µM (inactive); GI50 (HOP-62): 1.63 µM (inactive); GI50 (HOP-92): 0.791 µM (active); GI50 (HT-29): 3.66 µM (inactive); GI50 (Hs-578T): 5.51 µM (inactive); GI50 (IGROV-1): 5.36 µM (inactive); GI50 (K562): 3.23 µM (inactive); GI50 (KM12): 4.34 µM (inactive); GI50 (LOX IMVI): 1.67 µM (inactive); GI50 (M14): 3.13 µM (inactive); GI50 (MCF7): 2.05 µM (inactive); GI50 (MDA-MB-231): 4.25 µM (inactive); GI50 (MDA-MB-435): 1.78 µM (inactive); GI50 (MOLT-4): 2.12 µM (inactive); GI50 (Malme-3M): 7.71 µM (inactive); GI50 (NCI-H23): 5.42 µM (inactive); GI50 (NCI-H460): 2.11 µM (inactive); GI50 (NCI-H522): 1.34 µM (inactive); GI50 (NCI/ADR-RES): 2.75 µM (inactive); GI50 (OVCAR-3): 0.313 µM (active); GI50 (OVCAR-4): 3.15 µM (inactive); GI50 (OVCAR-5): 3.96 µM (inactive); GI50 (OVCAR-8): 3.64 µM (inactive); GI50 (PC-3): 2.94 µM (inactive); GI50 (RPMI-8226): 1.32 µM (inactive); GI50 (SF-268): 2.4 µM (inactive); GI50 (SF-295): 3.18 µM (inactive); GI50 (SF-539): 3.87 µM (inactive); GI50 (SK-MEL-28): 2.36 µM (inactive); GI50 (SK-MEL-2): 2.58 µM (inactive); GI50 (SK-MEL-5): 2.39 µM (inactive); GI50 (SK-OV-3): 8.85 µM (inactive); GI50 (SN12C): 2.45 µM (inactive); GI50 (SNB-19): 5.68 µM (inactive); GI50 (SNB-75): 4.18 µM (inactive); GI50 (SR): 2.88 µM (inactive); GI50 (SW-620): 3.74 µM (inactive); GI50 (T47D): 3.84 µM (inactive); GI50 (TK-10): 13.6 µM (inactive); GI50 (U-251): 4.85 µM (inactive); GI50 (UACC-257): 13.3 µM (inactive); GI50 (UACC-62): 1.44 µM (inactive); GI50 (UO-31): 4.89 µM (inactive)

What does the source list for `COc1c(-c2cccs2)oc2c(CC(=O)O)cccc2c1=O`?
GI50 (786-0): > 100 µM (inactive); GI50 (A498): 86.3 µM (inactive); GI50 (A549): > 100 µM (inactive); GI50 (BT-549): > 100 µM (inactive); GI50 (CAKI-1): > 100 µM (inactive); GI50 (CCRF-CEM): > 100 µM (inactive); GI50 (COLO 205): > 100 µM (inactive); GI50 (DU-145): > 100 µM (inactive); GI50 (EKVX): > 100 µM (inactive); GI50 (HCC 2998): > 100 µM (inactive); GI50 (HCT-116): > 100 µM (inactive); GI50 (HL-60): 0.0702 µM (active); GI50 (HOP-62): 1.2 µM (inactive); GI50 (IGROV-1): > 100 µM (inactive); GI50 (K562): > 100 µM (inactive); GI50 (M14): > 100 µM (inactive); GI50 (MCF7): > 100 µM (inactive); GI50 (MDA-MB-231): > 100 µM (inactive); GI50 (MDA-MB-435): > 100 µM (inactive); GI50 (MDA-N): > 100 µM (inactive); GI50 (MOLT-4): 56.9 µM (inactive); GI50 (Malme-3M): > 100 µM (inactive); GI50 (NCI-H23): 53.3 µM (inactive); GI50 (NCI-H522): > 100 µM (inactive); GI50 (OVCAR-3): > 100 µM (inactive); GI50 (OVCAR-5): > 100 µM (inactive); GI50 (PC-3): > 100 µM (inactive); GI50 (RPMI-8226): 0.23 µM (active); GI50 (RXF 393): > 100 µM (inactive); GI50 (SF-295): > 100 µM (inactive); GI50 (SF-539): > 100 µM (inactive); GI50 (SK-MEL-2): > 100 µM (inactive); GI50 (SK-MEL-5): > 100 µM (inactive); GI50 (SK-OV-3): > 100 µM (inactive); GI50 (SN12C): > 100 µM (inactive); GI50 (SR): 56 µM (inactive); GI50 (T47D): > 100 µM (inactive); GI50 (TK-10): > 100 µM (inactive); GI50 (U-251): > 100 µM (inactive); GI50 (UACC-257): > 100 µM (inactive); GI50 (UACC-62): > 100 µM (inactive); GI50 (UO-31): 10.3 µM (inactive)
